According to patent EP1750770B1, “USE OF ORGANO-SILICON COMPOUNDS FOR CO[…] TISSUES” (Exsymol, priority 2004, dated 2005):
Like-named read-outs stand apart in the source and are kept apart here.

Tests used:
[1] = system: glucose-6-phosphate déshydrogénase; assay: Glucose-6-phosphate dehydrogenase activity in tissue extracts of the dermal implant zone (Test 1); format: in vivo, rats Hairless; conditions: once daily
Description: 0,8 ml d'extrait tissulaire ont été incubés avec 20 µl de solution à 2,4 mM de NADP et à 24,4 mM de glucose 6-phosphate (G6P) en tampon phosphate (0,1M pH 7,4). L'augmentation de densité optique (mD.O./min) et corrélée à la réduction du substrat a été suivie à 340 nm à 25°C.
(§1) L'action quantitative et qualitative des deux composés organo-siliciés sur des rats Hairless et les altérations d'organisation de leur matrice extra-cellulaire (MEC) cutanée a été évaluée, et de manière régiosélective. En effet, un volume dermique de 0,5 cm^3 environ a été prélevé puis remplacé chirurgicalement par un dispositif médical implantable, que sont les microéponges en polyvinylalcool. Ces dernières sont usuellement utilisées pour la transplantation de cellules (Mooney D.J., J. Biomed. Mat Res(1995), vol.29, pp.959) car biocompatibles, de haute porosité et capables d'absorber 98% de leur volume.
(§2) La re-colonisation de l'implant (ou dispositif médical implantable) par le tissu dermique est alors observée sous l'effet des composés organo-siliciés. […] Les composés organo-siliciés sont administrés à raison d'une fois par jour pendant 2 mois.
(§3) L'évaluation quantitative a été réalisée via une mesure des cinétiques des marqueurs d'activité tissulaire dans la zone implantée. Les marqueurs suivis ont été des marqueurs biologiques témoignant de l'état du tissu, à savoir les enzymes "collagénase" et "élastase" qui rendent compte, avec leurs activités, du turn-over des protéines de la matrice extracellulaire, et l'enzyme "G6PDH" dont l'activité est un marqueur du niveau énergétique des cellules (équilibre redox cellulaire). L'évaluation qualitative a, elle, été réalisée avec le prélèvement chirurgical d'une partie de cet implant à différent temps de l'expérimentation. Après fixation, des coupes de 5 µm et une coloration H.E ou Trichrome-Masson ont été réalisées, ainsi qu'une analyse histologique de l'organisation du collagène de la MEC.

[2] = system: matrice extra-cellulaire (MEC) cutanée; assay: Qualitative evaluation: implant appearance and histological analysis of collagen organisation of the ECM (Test 1); format: in vivo, rats Hairless; conditions: once daily
Text: as §1, §2, §3

élastase = assay: Elastase activity in tissue extracts of the dermal implant zone (Test 1); format: in vivo, rats Hairless; conditions: once daily, SalSi-3OH intradermal, HyalSi-3OH topical cream
Description: Du N-succinyl-Ala-Ala-Pro-Leu p-nitroanilide en solution dans un tampon Tris-HCl (10mM pH 8) à 0,5 g/l à été incubé à 37°C avec 0,2 ml d'extrait tissulaire dans un volume final de 1,2 ml pendant 5 heures. L'augmentation de densité optique (mD.O./min) et corrélée à la protéolyse du substrat a été suivie à […].
as §1, §2, §3

collagénase = assay: Collagenase activity in tissue extracts of the dermal polyvinyl alcohol microsponge implant zone (Test 1); format: in vivo, rats Hairless; conditions: once daily
Description: Une solution à 0,5 mg /ml de PZ-L Pro-L Leu-L Gly-L Pro-D Arg a été réalisée dans un tampon Tris-HCl (25 mM, pH 7,0; 2,5 mM de CaCl2). 0,5 ml de la solution de substrat ont été incubés à 37°C avec 200 µl d'extrait tissulaire pendant 2 h 30. A différents temps, 100 µl du milieu réactionnel ont été prélevés et ajoutés à 250 µl d'acide citrique à 0,5% (arrêt de la réaction) puis à 1,25 ml d'acétate d'éthyle. L'augmentation de densité optique (mD.O./min) et corrélée à la protéolyse du substrat a été suivie à 320 nm.
as §1, §2, §3

[3] = immediately after the injection
[4] = system: rides "patte d'oie" et/ou intersourcilières; conditions: for échelle visuelle analogique, Front / échelle visuelle analogique, Pattes-d'oie: intradermal injections at J0, S1, S2, rated by volunteers; for amélioration du relief cutané: all injected sites
Text: Les données obtenues à partir de l'échelle visuelle analogique ont fait l'objet d'une analyse de variance en mesures répétées sur le temps, suivie d'une analyse des contrastes.

[5] = week 1 post-implantation, SalSi-3OH 0,5% solution 0,2 ml intradermal, HyalSi-3OH 0,5% cream 100 mg topical

## hyaluronate de monométhylsilanetriol [HyalSi-3OH]
[1]; week 1 post-implantation
  Activité G6DPH: 8,2±1,9 mD.O./min/mg de prot.
[1]; week 2 post-implantation
  Activité G6DPH: 13,8±1,5 mD.O./min/mg de prot.
[1]; week 3 post-implantation
  Activité G6DPH: 25,1±4,6 mD.O./min/mg de prot.
[1]; week 4 post-implantation
  Activité G6DPH: 46,8±7,6 mD.O./min/mg de prot.
[1]; week 5 post-implantation
  Activité G6DPH: 37,5±6,2 mD.O./min/mg de prot.
[1]; week 8 post-implantation
  Activité G6DPH: 7,3±2,4 mD.O./min/mg de prot.
[2]; week 1 post-implantation
  Aspect implant + analyse histologique: début colonisation cellulaire
[2]; week 2 post-implantation
  Aspect implant + analyse histologique: colonisation cellulaire (70 à 90%) + début formation MEC
[2]; week 3 post-implantation
  Aspect implant + analyse histologique: formation MEC avec accumulation collagène non organisé
[2]; week 4 post-implantation
  Aspect implant + analyse histologique: formation MEC avec présence collagène non organisé dans 30% des espaces de l'implant + collagène organisé dans 10% de l'implant
[2]; week 5 post-implantation
  Aspect implant + analyse histologique: formation MEC avec présence collagène non organisé dans l'ensemble de l'implant + collagéne organisé dans 30% de l'implant
[2]; week 8 post-implantation
  Aspect implant + analyse histologique: formation MEC dans l'ensemble de l'implant + collagène organisé dans 45% de l'implant
élastase; week 1 post-implantation
  Activité élastase: 3,4±0,5 mD.O./min/mg de prot.
élastase; week 2 post-implantation
  Activité élastase: 7,8±2,2 mD.O./min/mg de prot.
élastase; week 3 post-implantation
  Activité élastase: 10,5±2,9 mD.O./min/mg de prot.
élastase; week 4 post-implantation
  Activité élastase: 9,4±2,4 mD.O./min/mg de prot.
élastase; week 5 post-implantation
  Activité élastase: 5,6±1,1 mD.O./min/mg de prot.
élastase; week 8 post-implantation
  Activité élastase: 2,4±0,9 mD.O./min/mg de prot.
collagénase; [5]
  Activité collagénase: 3,4±0,3 mD.O./min/mg de prot.
collagénase; week 2 post-implantation
  Activité collagénase: 5,9±0,7 mD.O./min/mg de prot.
collagénase; week 3 post-implantation
  Activité collagénase: 12,0±1,3 mD.O./min/mg de prot.
collagénase; week 4 post-implantation
  Activité collagénase: 14,1±3,1 mD.O./min/mg de prot.
collagénase; week 5 post-implantation
  Activité collagénase: 7,3±1,6 mD.O./min/mg de prot.
collagénase; week 8 post-implantation
  Activité collagénase: 3,5±1,4 mD.O./min/mg de prot.

## salicylate de monométhylsilanetriol [SalSi-3OH]
[1]; week 1 post-implantation
  Activité G6DPH: 7,6±1,4 mD.O./min/mg de prot.
[1]; week 2 post-implantation
  Activité G6DPH: 9,3±1,1 mD.O./min/mg de prot.
[1]; week 3 post-implantation
  Activité G6DPH: 18,4±2,9 mD.O./min/mg de prot.
[1]; week 4 post-implantation
  Activité G6DPH: 43,7±5,5 mD.O./min/mg de prot.
[1]; week 5 post-implantation
  Activité G6DPH: 36,5±4,8 mD.O./min/mg de prot.
[1]; week 8 post-implantation
  Activité G6DPH: 9,0±0,45 mD.O./min/mg de prot.
[3]
  effet de comblement: sans effet de comblement immédiatement après l'injection
[2]; week 1 post-implantation
  Aspect implant + analyse histologique: début colonisation cellulaire
[2]; week 2 post-implantation
  Aspect implant + analyse histologique: colonisation cellulaire (70à 90%) + début formation MEC
[2]; week 3 post-implantation
  Aspect implant + analyse histologique: formation MEC avec présence collagène non organisé
[2]; week 4 post-implantation
  Aspect implant + analyse histologique: formation MEC avec présence collagène non organisé dans 20% des espaces de l'implant + collagène organisé dans 20% du l'implant
[2]; week 5 post-implantation
  Aspect implant + analyse histologique: formation MEC avec présence collagène non organisédans l'ensemble de l'implant + collagène organisé dans 50% de l'implant
[2]; week 8 post-implantation
  Aspect implant + analyse histologique: formation MEC dans l'ensemble de l'implant + collagène organisé dans 70% de l'implant
élastase; week 1 post-implantation
  Activité élastase: 3,0±0,6 mD.O./min/mg de prot.
élastase; week 2 post-implantation
  Activité élastase: 6,8±1,3 mD.O./min/mg de prot.
élastase; week 3 post-implantation
  Activité élastase: 9,5±1,3 mD.O./min/mg de prot.
élastase; week 4 post-implantation
  Activité élastase: 8,4±1,6 mD.O./min/mg de prot.
élastase; week 5 post-implantation
  Activité élastase: 5,1±0,9 mD.O./min/mg de prot.
élastase; week 8 post-implantation
  Activité élastase: 2,0±0,3 mD.O./min/mg de prot.
[4]; S1
  échelle visuelle analogique, Front: 18,67 ± 20,98 µm
  échelle visuelle analogique, Pattes-d'oie: 19,20 ± 19,14 µm
[4]; S2
  échelle visuelle analogique, Front: 32,25 ± 23,23 µm
  échelle visuelle analogique, Pattes-d'oie: 31,23 ± 21,66 µm
[4]; S6
  échelle visuelle analogique, Front: 35,33 ± 26,99 µm
  échelle visuelle analogique, Pattes-d'oie: 38,92 ± 25,97 µm
[4]; S12
  échelle visuelle analogique, Front: 38,65 ± 25,85 µm
  échelle visuelle analogique, Pattes-d'oie: 41,63 ± 26,70 µm
[4]; S24
  échelle visuelle analogique, Front: 39,55 ± 25,33 µm
  échelle visuelle analogique, Pattes-d'oie: 39,58 ± 24,89 µm
[4]; S36
  échelle visuelle analogique, Front: 36,57 ± 24,55 µm
  échelle visuelle analogique, Pattes-d'oie: 39,52 ± 25,22 µm
[4]; S52
  échelle visuelle analogique, Front: 34,58 ± 25,54 µm
  échelle visuelle analogique, Pattes-d'oie: 38,61 ± 26,10 µm
[4]; at 6 months
  amélioration du relief cutané: se maintient
[4]; at 12 months
  amélioration du relief cutané: régresse très légèrement
[4]; mean, after 3 months
  amélioration du relief cutané: 40%
[4]; one year after the first injection
  amélioration du relief cutané (significance): significative sur tous les sites
collagénase; [5]
  Activité collagénase: 3,6±0,5 mD.O./min/mg de prot.
collagénase; week 2 post-implantation
  Activité collagénase: 6,1±0,8 mD.O./min/mg de prot.
collagénase; week 3 post-implantation
  Activité collagénase: 13±1,7 mD.O./min/mg de prot.
collagénase; week 4 post-implantation
  Activité collagénase: 11,2±0,8 mD.O./min/mg de prot.
collagénase; week 5 post-implantation
  Activité collagénase: 8,1±1,3 mD.O./min/mg de prot.
collagénase; week 8 post-implantation
  Activité collagénase: 3,9±0,5 mD.O./min/mg de prot.
